Molecules are shown by their SMILES.

The nature of the assay: Cell-based activity under Prompt Conditions: Cell-based activity under Prompt Conditions. Rat or human NHE3-mediated Na+-dependent H+ antiport was measured using a modification of the pH sensitive dye method originally reported by Paradiso (PNAS USA. 81:7436-7440, 1984). Opossum kidney (OK) cells were obtained from the ATCC and propagated per their instructions. The rat NHE3 gene (GenBank M85300) or the human NHE3 gene (GenBank NM_004174.1) was introduced into OK cells via electroporation, and cells were seeded into 96 well plates and grown overnight. Medium was aspirated from the wells, cells were washed twice with NaCl-HEPES buffer (100 mM NaCl, 50 mM HEPES, 10 mM glucose, 5 mM KCl, 2 mM CaCl2, 1 mM MgCl2, pH 7.4), then incubated for 30 min at room temperature with NH4Cl-HEPES buffer (20 mM NH4Cl, 80 mM NaCl, 50 mM HEPES, 5 mM KCl, 2 mM CaCl2, 1 mM MgCl2, pH 7.4) containing 5 μM bis(acetoxymethyl) 3,3′-(3′,6′-bis(acetoxymethoxy)-5-((acetoxymethoxy)carbonyl)-3-oxo-3H-spiro[isobenzofuran-1,9′-xanthene]-2′,7′-diyl)dipropanoate (BCECF-AM).Cells were washed twice with Ammonium free, Na+-free HEPES (100 mM choline, 50 mM HEPES, 10 mM glucose, 5 mM KCl, 2 mM CaCl2, 1 mM MgCl2, pH 7.4) and incubated in the same buffer for 10 minutes at room temperature to lower intracellular pH. […] Initial rates were plotted as the average 2 or more replicates, and pIC50 values were estimated using GraphPad Prism.
The IC50 is the concentration at which inhibition is half-maximal. For the molecule `CN(CC(=O)O)CC(=O)NC(CCC(=O)NCCOCCOCCNS(=O)(=O)c1cccc([C@@H]2CN(C)Cc3c(Cl)cc(Cl)cc32)c1)(CCC(=O)NCCOCCOCCNS(=O)(=O)c1cccc([C@@H]2CN(C)Cc3c(Cl)cc(Cl)cc32)c1)CCC(=O)NCCOCCOCCNS(=O)(=O)c1cccc([C@@H]2CN(C)Cc3c(Cl)cc(Cl)cc32)c1`, the IC50 was 50.1 nM.

For the molecule `CN(C)[C@H]1Cc2c(Cl)cc(Cl)cc2[C@@H]1Oc1ccc(S(=O)(=O)NCCOCCOCCNC(=O)NCCCCNC(=O)NCCOCCOCCNS(=O)(=O)c2ccc(O[C@H]3c4cc(Cl)cc(Cl)c4C[C@@H]3N(C)C)cc2)cc1`, the IC50 is 6.31 nM.

For the molecule `CN1Cc2c(Cl)cc(Cl)cc2[C@H](c2cccc(S(=O)(=O)NCCOCCOCCNC(=O)CCC(CCC(=O)NCCOCCOCCNS(=O)(=O)c3cccc([C@@H]4CN(C)Cc5c(Cl)cc(Cl)cc54)c3)(CCC(=O)NCCOCCOCCNS(=O)(=O)c3cccc([C@@H]4CN(C)Cc5c(Cl)cc(Cl)cc54)c3)NC(=O)NC[C@H](O)[C@@H](O)[C@H](O)[C@H](O)CO)c2)C1`, the IC50 was 56.2 nM.

Take `CNC(=O)NC(CCC(=O)NCCOCCOCCNS(=O)(=O)c1cccc([C@@H]2CN(C)Cc3c(Cl)cc(Cl)cc32)c1)(CCC(=O)NCCOCCOCCNS(=O)(=O)c1cccc([C@@H]2CN(C)Cc3c(Cl)cc(Cl)cc32)c1)CCC(=O)NCCOCCOCCNS(=O)(=O)c1cccc([C@@H]2CN(C)Cc3c(Cl)cc(Cl)cc32)c1`: the half-maximal inhibitory concentration (IC50) is 794 nM.

Consider `CN1Cc2c(Cl)cc(Cl)cc2[C@H](c2cccc(S(=O)(=O)NCCOCCOCCNC(=O)CCC(CCC(=O)NCCOCCOCCNS(=O)(=O)c3cccc([C@@H]4CN(C)Cc5c(Cl)cc(Cl)cc54)c3)(CCC(=O)NCCOCCOCCNS(=O)(=O)c3cccc([C@@H]4CN(C)Cc5c(Cl)cc(Cl)cc54)c3)NC(=O)N(C)C[C@H](O)[C@@H](O)[C@H](O)[C@H](O)CO)c2)C1`, for which the IC50 is 7.94 nM.

For the molecule `CN1Cc2c(Cl)cc(Cl)cc2[C@H](c2cccc(S(=O)(=O)N(C)CCOCCOCCNC(=O)CCN(CCC(=O)NCCOCCOCCN(C)S(=O)(=O)c3cccc([C@@H]4CN(C)Cc5c(Cl)cc(Cl)cc54)c3)CCC(=O)NCCOCCOCCN(C)S(=O)(=O)c3cccc([C@@H]4CN(C)Cc5c(Cl)cc(Cl)cc54)c3)c2)C1`, the IC50 was 316 nM.

As to `CN1Cc2c(Cl)cc(Cl)cc2[C@H](c2cccc(S(=O)(=O)NCCOCCOCCNC(=O)CCC(CCC(=O)NCCOCCOCCNS(=O)(=O)c3cccc([C@@H]4CN(C)Cc5c(Cl)cc(Cl)cc54)c3)(CCC(=O)NCCOCCOCCNS(=O)(=O)c3cccc([C@@H]4CN(C)Cc5c(Cl)cc(Cl)cc54)c3)NC(N)=O)c2)C1`, the concentration for half-maximal inhibition (IC50) is 316 nM.

Take `O=C(NCCCCNC(=O)NCCOCCOCCNS(=O)(=O)c1ccc(O[C@H]2c3cc(F)ccc3C[C@@H]2N2CCCCC2)cc1)NCCOCCOCCNS(=O)(=O)c1ccc(O[C@H]2c3cc(F)ccc3C[C@@H]2N2CCCCC2)cc1`: the 50% inhibitory concentration (IC50) was 1.26 nM.

As for `CN1Cc2c(Cl)cc(Cl)cc2[C@H](c2cccc(S(=O)(=O)NCCOCCOCCNC(=O)CCC(CCC(=O)NCCOCCOCCNS(=O)(=O)c3cccc([C@@H]4CN(C)Cc5c(Cl)cc(Cl)cc54)c3)(CCC(=O)NCCOCCOCCNS(=O)(=O)c3cccc([C@@H]4CN(C)Cc5c(Cl)cc(Cl)cc54)c3)NC(=O)CCCC(=O)O)c2)C1`, the IC50 was 50.1 nM.

With `CCN(CCOCCOCCNC(=O)NCCCN(CCCNC(=O)NCCOCCOCCN(CC)S(=O)(=O)c1cccc([C@@H]2CN(C)Cc3c(Cl)cc(Cl)cc32)c1)CCCNC(=O)NCCOCCOCCN(CC)S(=O)(=O)c1cccc([C@@H]2CN(C)Cc3c(Cl)cc(Cl)cc32)c1)S(=O)(=O)c1cccc([C@@H]2CN(C)Cc3c(Cl)cc(Cl)cc32)c1`, the IC50 is 1000 nM.

Take `CN(C)CC(=O)NC(CCC(=O)NCCOCCOCCNS(=O)(=O)c1cccc([C@@H]2CN(C)Cc3c(Cl)cc(Cl)cc32)c1)(CCC(=O)NCCOCCOCCNS(=O)(=O)c1cccc([C@@H]2CN(C)Cc3c(Cl)cc(Cl)cc32)c1)CCC(=O)NCCOCCOCCNS(=O)(=O)c1cccc([C@@H]2CN(C)Cc3c(Cl)cc(Cl)cc32)c1`: the IC50 is 79.4 nM.

With `CN(C)[C@H]1Cc2ccc(F)cc2[C@@H]1Oc1ccc(S(=O)(=O)NCCOCCOCCNC(=O)NCCCCNC(=O)NCCOCCOCCNS(=O)(=O)c2ccc(O[C@H]3c4cc(F)ccc4C[C@@H]3N(C)C)cc2)cc1`, the 50% inhibitory concentration (IC50) is below 10000 nM.

In the case of `CN1Cc2c(Cl)cc(Cl)cc2[C@H](c2cccc(S(=O)(=O)NCCOCCOCCNC(=O)CCC(CCC(=O)NCCOCCOCCNS(=O)(=O)c3cccc([C@@H]4CN(C)Cc5c(Cl)cc(Cl)cc54)c3)(CCC(=O)NCCOCCOCCNS(=O)(=O)c3cccc([C@@H]4CN(C)Cc5c(Cl)cc(Cl)cc54)c3)NC(=O)N(C)C)c2)C1`, the 50% inhibitory concentration (IC50) was 2510 nM.

With `CC(C)CCC[C@@H](C)[C@H]1CC[C@H]2[C@@H]3CC=C4C[C@@H](OC(=O)NCCOCCOCCOCCNS(=O)(=O)c5cccc([C@@H]6CN(C)Cc7c(Cl)cc(Cl)cc76)c5)CC[C@]4(C)[C@H]3CC[C@]12C`, the IC50 was below 10000 nM.

With `CN1Cc2c(Cl)cc(Cl)cc2[C@H](c2cccc(S(=O)(=O)NCCOCCOCCNC(=O)CCC(CCC(=O)NCCOCCOCCNS(=O)(=O)c3cccc([C@@H]4CN(C)Cc5c(Cl)cc(Cl)cc54)c3)(CCC(=O)NCCOCCOCCNS(=O)(=O)c3cccc([C@@H]4CN(C)Cc5c(Cl)cc(Cl)cc54)c3)NC(=O)NCCN3CCOCC3)c2)C1`, the concentration for half-maximal inhibition (IC50) was 63.1 nM.

As to `N[C@@H]1CCCN([C@H]2Cc3c(Cl)cc(Cl)cc3[C@@H]2Oc2ccc(S(=O)(=O)NCCOCCOCCNC(=O)NCCCCNC(=O)NCCOCCOCCNS(=O)(=O)c3ccc(O[C@H]4c5cc(Cl)cc(Cl)c5C[C@@H]4N4CCC[C@@H](N)C4)cc3)cc2)C1`, the 50% inhibitory concentration (IC50) is 39.8 nM.

With `CN1Cc2c(Cl)cc(Cl)cc2[C@H](c2cccc(S(=O)(=O)NCCOCCOCCNC(=O)CCC(CCC(=O)NCCOCCOCCNS(=O)(=O)c3cccc([C@@H]4CN(C)Cc5c(Cl)cc(Cl)cc54)c3)(CCC(=O)NCCOCCOCCNS(=O)(=O)c3cccc([C@@H]4CN(C)Cc5c(Cl)cc(Cl)cc54)c3)NC(=O)COCC(=O)O)c2)C1`, the IC50 is 25.1 nM.

With `O=C(NCCCCNC(=O)NCCOCCOCCNC(=O)Nc1cccc(O[C@H]2c3ccccc3C[C@@H]2N2CCCCC2)c1)NCCOCCOCCNC(=O)Nc1cccc(O[C@H]2c3ccccc3C[C@@H]2N2CCCCC2)c1`, the concentration for half-maximal inhibition (IC50) was below 10000 nM.

As to `CN1Cc2c(Cl)cc(Cl)cc2[C@H](c2cccc(S(=O)(=O)NCCOCCOCCNC(=O)CCC(CCC(=O)NCCOCCOCCNS(=O)(=O)c3cccc([C@@H]4CN(C)Cc5c(Cl)cc(Cl)cc54)c3)(CCC(=O)NCCOCCOCCNS(=O)(=O)c3cccc([C@H]4c5cc(Cl)cc(Cl)c5CCN4C)c3)NC(=O)N[C@@H](CC(=O)O)C(=O)O)c2)C1`, the IC50 was 25.1 nM.

As to `CN1Cc2c(Cl)cc(Cl)cc2[C@H](c2cccc(S(=O)(=O)NCCOCCOCCNC(=O)CCC(CCC(=O)NCCOCCOCCNS(=O)(=O)c3cccc([C@@H]4CN(C)Cc5c(Cl)cc(Cl)cc54)c3)(CCC(=O)NCCOCCOCCNS(=O)(=O)c3cccc([C@@H]4CCN(C)c5c(Cl)cc(Cl)cc54)c3)NC(=O)[C@H]3CCCC[C@@H]3C(=O)O)c2)C1`, the IC50 was 126 nM.

For `CN1Cc2c(Cl)cc(Cl)cc2C(c2cccc(S(=O)(=O)NCCOCCOCCNC(=O)CCC(CCC(=O)NCCOCCOCCNS(=O)(=O)c3cccc([C@@H]4CN(C)Cc5c(Cl)cc(Cl)cc54)c3)(CCC(=O)NCCOCCOCCNS(=O)(=O)c3cccc([C@@H]4CN(C)Cc5c(Cl)cc(Cl)cc54)c3)N(C)C)c2)C1` (stereo partly specified), the IC50 was 67.6 nM.
